# Assays:
# [1] = target: Neuronal acetylcholine receptor subunit alpha-3 (Rattus norvegicus, UniProt P04757)
# [2] = target: Nicotinic acetylcholine receptor (Rattus leucopus, UniProt Q62594)
# Sequence of Nicotinic acetylcholine receptor (Q62594 whole entry): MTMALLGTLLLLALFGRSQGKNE
# Sequence of Neuronal acetylcholine receptor subunit alpha-3 (P04757 whole entry): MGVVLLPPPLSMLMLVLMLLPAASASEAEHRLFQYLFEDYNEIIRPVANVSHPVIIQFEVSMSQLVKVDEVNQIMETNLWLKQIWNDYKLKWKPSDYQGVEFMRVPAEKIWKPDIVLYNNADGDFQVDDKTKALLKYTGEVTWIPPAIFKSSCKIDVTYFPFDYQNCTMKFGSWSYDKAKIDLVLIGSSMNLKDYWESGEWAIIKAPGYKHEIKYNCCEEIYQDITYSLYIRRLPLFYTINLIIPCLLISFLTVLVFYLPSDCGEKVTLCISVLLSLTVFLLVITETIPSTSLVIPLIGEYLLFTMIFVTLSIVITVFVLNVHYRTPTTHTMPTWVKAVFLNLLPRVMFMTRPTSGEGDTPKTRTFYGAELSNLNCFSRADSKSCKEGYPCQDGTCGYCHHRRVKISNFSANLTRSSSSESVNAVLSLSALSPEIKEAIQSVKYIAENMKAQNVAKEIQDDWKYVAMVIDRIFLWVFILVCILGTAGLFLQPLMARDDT
SMILES,Ki [1] [µM],Ki [2] [µM]
CO[C@@H]1CC=C2CCN3CCC4=C(CC(=O)OC4)[C@@]23C1,> 10,–
"O=c1cccc2n1C[C@H]1CNC[C@H]2C1 [(1S,9R)-7,11-diazatricyclo[7.3.1.0~2,7~]trideca-2,4-dien-6-one]",0.195,–
C[N+](C)(C)CCOC(N)=O [(2-Hydroxyethyl)trimethyl ammonium chloride carbamate],3.84,–
COc1cc2c3cc1Oc1cc(ccc1O)C[C@H]1c4c(cc(OC)c(O)c4Oc4ccc(cc4)C[C@@H]3N(C)CC2)CC[N+]1(C)C [CAS_57-94-3],> 10,2.24
C[N+](C)(C)CCCCCC[N+](C)(C)C [Hexamethoniumdibromide],> 10,> 10

# From BindingDB's records for doi:10.1124/mol.54.2.322 (Georgetown University, 1998)
